From patent US20110118350A1, “COMPOSITION FOR PREVENTING CARDIOVASCULAR EVENT IN HIGH-RISK PATIENT” (MOCHIDA PHARMACEUTICAL CO., LTD., priority 2008, published 2011)

Assay: Incidence of cardiovascular events for 5 years from the start of administration (DELIS partial analysis)
Format: in vivo, human
Conditions: for Ratio of incidence reduction (%): EPA-E vs control group; for Incidence (%) of cardiovascular events / Number of cardiovascular events: 5 years
From the text: This trial corresponds to a partial analysis of the results obtained in DELIS (Japan EPA Lipid Intervention Study) which is a large scale clinical trial of high purity EPA preparation which was presented in the American College of Cardiology 2005 Annual Meeting (for general information on DELIS, see Lancet, vol. 369, pp. 1090-1098 (2007)). More specifically, of 18,645 subject patients of the DELIS trial (EPA group (9,326 cases) and control group (9,319 cases)), 15534 cases (sum of the control group and EPA group) were analyzed for the composition of plasma fatty acids and divided based on the average of the plasma OA/SA ratio during the whole observation period into three groups (i.e., a group having an OA/SA ratio of less than 2.6, a group having an OA/SA ratio of at least 2.6 but less than 3.0, and a group having an OA/SA ratio of at least 3.0) so that the three groups were approximately equal in number, and the groups were compared for the incidence of cardiovascular events for 5 years from the start of administration. The EPA group was orally administered with Epadel (EPA-E available from Mochida Pharmaceutical Co., Ltd.) typically at an adult dose of 600 mg per administration and 3 times a day immediately after the meal. However, in the case of abnormal serum TG, the dose could be increased to 900 mg per administration and 3 times a day depending on the degree of abnormality. In both groups, pravastatin sodium (Mevalotin™ tablets and fine granules, Daiichi Sankyo Co., Ltd.), simvastatin (Lipovas™ tablets, Banyu Pharmaceutical Co., Ltd.), or atorvastatin calcium hydrate (Lipitor™ tablets, Astellas Pharma Inc. and Pfizer Inc.) was used for the base drug, and these drugs were orally administered according to the prescribed dosage regimen. This trial corresponds to a partial analysis of the results obtained in DELIS as in Example 1. More specifically, primary prevention cases combined with secondary prevention cases, only primary prevention cases, and only secondary prevention cases were respectively divided into four groups based on the plasma OA level or the plasma SA level at the start of administration so that the four groups were approximately equal in number. The groups were compared for the incidence of cardiovascular events for 5 years from the start of administration.

[1] = primary + secondary prevention cases, Total (oleic acid grouping)
[2] = primary + secondary prevention cases, Total (stearic acid grouping)
[3] = primary + secondary prevention cases, oleic acid at start 22.1< mol %
[4] = primary + secondary prevention cases, oleic acid at start >18.2-20.1 mol %
[5] = primary + secondary prevention cases, oleic acid at start >20.1-22.1 mol %
[6] = primary + secondary prevention cases, oleic acid at start −18.2 mol %
[7] = primary + secondary prevention cases, stearic acid at start 7.35< mol %
[8] = primary + secondary prevention cases, stearic acid at start >6.46-6.89 mol %
[9] = primary + secondary prevention cases, stearic acid at start >6.89-7.35 mol %
[10] = primary + secondary prevention cases, stearic acid at start −6.46 mol %
[11] = primary prevention cases, Total (oleic acid grouping)
[12] = primary prevention cases, Total (stearic acid grouping)
[13] = primary prevention cases, oleic acid at start 21.9< mol %
[14] = primary prevention cases, oleic acid at start >18.1-19.9 mol %
[15] = primary prevention cases, oleic acid at start >19.9-21.9 mol %
[16] = primary prevention cases, oleic acid at start −18.1 mol %
[17] = primary prevention cases, stearic acid at start 7.33< mol %
[18] = primary prevention cases, stearic acid at start >6.46-6.89 mol %
[19] = primary prevention cases, stearic acid at start >6.89-7.33 mol %
[20] = primary prevention cases, stearic acid at start −6.46 mol %
[21] = secondary prevention cases, Total (oleic acid grouping)
[22] = secondary prevention cases, Total (stearic acid grouping)
[23] = secondary prevention cases, oleic acid at start 22.1< mol %
[24] = secondary prevention cases, oleic acid at start >18.2-20.1 mol %
[25] = secondary prevention cases, oleic acid at start >20.1-22.1 mol %
[26] = secondary prevention cases, oleic acid at start −18.2 mol %
[27] = secondary prevention cases, stearic acid at start 7.38< mol %
[28] = secondary prevention cases, stearic acid at start >6.46-6.90 mol %
[29] = secondary prevention cases, stearic acid at start >6.90-7.38 mol %
[30] = secondary prevention cases, stearic acid at start −6.46 mol %

SMILES: CC/C=C\C/C=C\C/C=C\C/C=C\C/C=C\CCCC(=O)OCC [EPA-E, ethyl icosapentate]
- Ratio of incidence reduction (%) [1]: 13.2%
- Ratio of incidence reduction (%) [2]: 13.2%
- Ratio of incidence reduction (%) [3]: 30.3%
- Ratio of incidence reduction (%) [4]: 14.6%
- Ratio of incidence reduction (%) [5]: −2.0%
- Ratio of incidence reduction (%) [6]: −5.3%
- Ratio of incidence reduction (%) [7]: 39.5%
- Ratio of incidence reduction (%) [8]: −13.9%
- Ratio of incidence reduction (%) [9]: 26.6%
- Ratio of incidence reduction (%) [10]: 1.8%
- Ratio of incidence reduction (%) [11]: 11.1%
- Ratio of incidence reduction (%) [12]: 11.1%
- Ratio of incidence reduction (%) [13]: 30.4%
- Ratio of incidence reduction (%) [14]: 26.1%
- Ratio of incidence reduction (%) [15]: −20.6%
- Ratio of incidence reduction (%) [16]: −12.2%
- Ratio of incidence reduction (%) [17]: 17.0%
- Ratio of incidence reduction (%) [18]: −17.3%
- Ratio of incidence reduction (%) [19]: 19.5%
- Ratio of incidence reduction (%) [20]: 22.0%
- Ratio of incidence reduction (%) [21]: 15.5%
- Ratio of incidence reduction (%) [22]: 15.5%
- Ratio of incidence reduction (%) [23]: 40.8%
- Ratio of incidence reduction (%) [24]: −3.4%
- Ratio of incidence reduction (%) [25]: 8.1%
- Ratio of incidence reduction (%) [26]: 3.0%
- Ratio of incidence reduction (%) [27]: 65.2%
- Ratio of incidence reduction (%) [28]: −19.9%
- Ratio of incidence reduction (%) [29]: 38.7%
- Ratio of incidence reduction (%) [30]: −26.0%
- effect on incidence and/or rate of recurrence of cardiovascular events (patients with an OA level exceeding 22.1 mol % or an SA level exceeding 7.38 mol %): reduced incidence and/or rate of recurrence of cardiovascular events
- Incidence (%) of cardiovascular events [1]: 3.8%
- Number of cardiovascular events [1]: 266
- Incidence (%) of cardiovascular events [2]: 3.8%
- Number of cardiovascular events [2]: 266
- Incidence (%) of cardiovascular events [3]: 4.7%
- Number of cardiovascular events [3]: 77
- Incidence (%) of cardiovascular events [4]: 3.1%
- Number of cardiovascular events [4]: 55
- Incidence (%) of cardiovascular events [5]: 4.4%
- Number of cardiovascular events [5]: 76
- Incidence (%) of cardiovascular events [6]: 3.3%
- Number of cardiovascular events [6]: 58
- Incidence (%) of cardiovascular events [7]: 2.5%
- Number of cardiovascular events [7]: 44
- Incidence (%) of cardiovascular events [8]: 4.9%
- Number of cardiovascular events [8]: 81
- Incidence (%) of cardiovascular events [9]: 3.2%
- Number of cardiovascular events [9]: 56
- Incidence (%) of cardiovascular events [10]: 4.8%
- Number of cardiovascular events [10]: 85
- Incidence (%) of cardiovascular events [11]: 2.5%
- Number of cardiovascular events [11]: 140
- Incidence (%) of cardiovascular events [12]: 2.5%
- Number of cardiovascular events [12]: 140
- Incidence (%) of cardiovascular events [13]: 2.8%
- Number of cardiovascular events [13]: 40
- Incidence (%) of cardiovascular events [14]: 1.9%
- Number of cardiovascular events [14]: 27
- Incidence (%) of cardiovascular events [15]: 3.2%
- Number of cardiovascular events [15]: 46
- Incidence (%) of cardiovascular events [16]: 1.8%
- Number of cardiovascular events [16]: 27
- Incidence (%) of cardiovascular events [17]: 1.9%
- Number of cardiovascular events [17]: 27
- Incidence (%) of cardiovascular events [18]: 3.1%
- Number of cardiovascular events [18]: 43
- Incidence (%) of cardiovascular events [19]: 2.4%
- Number of cardiovascular events [19]: 34
- Incidence (%) of cardiovascular events [20]: 2.4%
- Number of cardiovascular events [20]: 36
- Incidence (%) of cardiovascular events [21]: 10.2%
- Number of cardiovascular events [21]: 126
- Incidence (%) of cardiovascular events [22]: 10.2%
- Number of cardiovascular events [22]: 126
- Incidence (%) of cardiovascular events [23]: 9.5%
- Number of cardiovascular events [23]: 27
- Incidence (%) of cardiovascular events [24]: 8.7%
- Number of cardiovascular events [24]: 28
- Incidence (%) of cardiovascular events [25]: 11.5%
- Number of cardiovascular events [25]: 37
- Incidence (%) of cardiovascular events [26]: 11.2%
- Number of cardiovascular events [26]: 34
- Incidence (%) of cardiovascular events [27]: 4.3%
- Number of cardiovascular events [27]: 14
- Incidence (%) of cardiovascular events [28]: 14.2%
- Number of cardiovascular events [28]: 41
- Incidence (%) of cardiovascular events [29]: 6.9%
- Number of cardiovascular events [29]: 22
- Incidence (%) of cardiovascular events [30]: 16.4%
- Number of cardiovascular events [30]: 49
